This note sets out measurements from ChEMBL document CHEMBL4000217, “Structure-activity relationship of daptomycin analogues with substitution at (2S, 3R) 3-methyl glutamic acid position” (2017).

Structures are written as SMILES. In brackets after ≈: the same amount, converted by molar mass.

In general, MIC refers to the smallest concentration in the dilution series that meets the test's criterion for growth inhibition. A higher MIC goes with weaker potency.

This assay concerns Staphylococcus aureus. Put plainly: Antibacterial activity against Staphylococcus aureus isolate 42 […] by CLSI method. It is filed as functional.
In turn, `CCCCCCCCCC(=O)N[C@@H](Cc1c[nH]c2ccccc12)C(=O)N[C@@H](CC(N)=O)C(=O)N[C@@H](CC(=O)O)C(=O)N[C@@H]1C(=O)NCC(=O)N[C@@H](CCCN)C(=O)N[C@@H](CC(=O)O)C(=O)N[C@H](C)C(=O)N[C@@H](CC(=O)O)C(=O)NCC(=O)N[C@H](CO)C(=O)N[C@@H]([C@H](C)CC(N)=O)C(=O)N[C@@H](CC(=O)c2ccccc2N)C(=O)O[C@@H]1C` showed an MIC of 32 µg/mL (≈ 19.8 µM).

Regarding `CCCCCCCCCC(=O)N[C@@H](Cc1c[nH]c2ccccc12)C(=O)N[C@@H](CC(N)=O)C(=O)N[C@@H](CC(=O)O)C(=O)N[C@@H]1C(=O)NCC(=O)N[C@@H](CCCN)C(=O)N[C@@H](CC(=O)O)C(=O)N[C@H](C)C(=O)N[C@@H](CC(=O)O)C(=O)NCC(=O)N[C@H](CO)C(=O)N[C@@H](C(C)(C)CC(=O)O)C(=O)N[C@@H](CC(=O)c2ccccc2N)C(=O)O[C@@H]1C`, the MIC is 64 µg/mL (≈ 39.2 µM).

Turning to `CCCCCCCCCC(=O)N[C@@H](Cc1c[nH]c2ccccc12)C(=O)N[C@@H](CC(N)=O)C(=O)N[C@@H](CC(=O)O)C(=O)N[C@@H]1C(=O)NCC(=O)N[C@@H](CCCN)C(=O)N[C@@H](CC(=O)O)C(=O)N[C@H](C)C(=O)N[C@@H](CC(=O)O)C(=O)NCC(=O)N[C@H](CO)C(=O)N[C@@H]([C@H](CC)CC(=O)O)C(=O)N[C@@H](CC(=O)c2ccccc2N)C(=O)O[C@@H]1C`, the MIC came to 8 µg/mL (≈ 4.89 µM).

Consider `CCCCCCCCCC(=O)N[C@@H](Cc1c[nH]c2ccccc12)C(=O)N[C@H](CC(N)=O)C(=O)N[C@@H](CC(=O)O)C(=O)N[C@@H]1C(=O)NCC(=O)N[C@@H](CCCN)C(=O)N[C@@H](CC(=O)O)C(=O)N[C@H](C)C(=O)N[C@@H](CC(=O)O)C(=O)NCC(=O)N[C@H](CO)C(=O)N[C@@H]([C@H](C)CC(=O)O)C(=O)N[C@@H](CC(=O)c2ccccc2N)C(=O)O[C@@H]1C`, for which inhibition of growth (MIC) required 0.5 µg/mL (≈ 0.309 µM).

For the compound `CCCCCCCCCC(=O)N[C@@H](Cc1c[nH]c2ccccc12)C(=O)N[C@@H](CC(N)=O)C(=O)N[C@@H](CC(=O)O)C(=O)N[C@@H]1C(=O)NCC(=O)N[C@@H](CCCN)C(=O)N[C@@H](CC(=O)O)C(=O)N[C@H](C)C(=O)N[C@@H](CC(=O)O)C(=O)NCC(=O)N[C@H](CO)C(=O)N[C@@H](C(C)CC(=O)O)C(=O)N[C@@H](CC(=O)c2ccccc2N)C(=O)O[C@@H]1C` (single isomer, unassigned) [DAPTOMYCIN], the MIC is 128 µg/mL (≈ 79 µM).
